According to patent US20250304625A1, “ARTICLES AND METHODS FOR INHIBITING METHIONINE AMINOPEPTIDASE ACTIVITY” (Vanderbilt University, priority 2022, published 2025):

Tests used:
TKPTS cells [1] = assay: TKPTS cell proliferation by CellTrace flow cytometry; format: cell-based, murine; conditions: Zng1 mutant cells compared to WT, 3 μM TPA, three days
Protocol: TKPTS cells were seeding at 2,000 to 4,000 cells per well of 24- or 12-well tissue culture treated multi-well plates and incubated overnight at 37° C. Cells were staining with CellTRACE violet (Invitrogen, C34557) as described by manufacturer's protocol. Briefly, CellTRACE solution was prepared in PBS at a 1:1,000 dilution, added to the cells, and cells were incubated for 20 min at 37° C. Cells were then washed two times in cell culture media supplemented with 7% FBS, and replaced with fresh cell culture media supplemented with desired chemical treatments (3 μM TPA, Sigma, 723134; 5 μg/ml TNP470, Sigma, T1455; or 50 nM Bengamide B, Santa cruz, sc-397521A). Stock solutions of drugs were prepared in ACS-grade DMSO (Fisher Scientific, D136). […] After three days of growth, cells were stained with MitoTracker far-red (Invitrogen, M22426; 1:2500 dilution for 20 min at 37° C.) and MitoSOX red (Molecular probes, M36008: 1,1000 for 20 min at 37° C.) following manufacture's protocols. Cells were washed with PBS, trypsinized, and transferred to Eppendorf tubes prior to fixation in 4% PFA (Alfa aesar, J61899). Cells were fixed for 20 min at room temperature, centrifuged at 200×g for 10 min and washed with PBS prior to resuspension in 300 μl FACS buffer (2% FBS, 0.02% sodium azide in PBS). All flow cytometry data were collected using a BD LSRII flow cytometer with FACSDIVA software and analyzed using FlowJo (FlowJo LLC). Samples were gated forward scatter height (FSC-H) by forward scatter area (FSC-A) and side scatter height (SSC-H) by side scatter area (SSC-A) to remove doublet populations. The singlet population was gated SSC-A by FSC-A to isolate live cells. The resulting cell population was then assessed for assay-specific fluorescent markers and the median fluorescence intensity (MFI) quantified.

TKPTS cells [2] = assay: Seahorse XF96 cell mitochondrial stress test (oxygen consumption rate); format: cell-based, murine; conditions: Zng1^−/− cells pre-treated with 3 μM TPA
Protocol: 8,000 WT or Zng1 mutant vehicle treated TKPTS cells or TKPTS cells serially passaged in 3 μM TPA (Sigma, 723134) were plated in individual wells of seahorse plates in complete DMEM F12 media described above. Cells were resuspended in mitochondria assay media (Seahorse Agilent pH 7.4 media+1 mM pyruvate+10 mM glucose+2 mM glutamine). No TKPTS cells were added to the four wells in the corners of the plate as a background control. For the mitochondrial stress test, the cartridge was sequentially loaded with oligomycin (15 μM), FCCP (15 μM), and rotenone/antimycin A (5 μM) (diluted in mitochondria assay media) for injection into the wells. To normalize across wells by cell density, the Seahorse plate was imaged using a BioTek Cytation 5. Oxygen consumption and extracellular acidification rates were collected using a Seahorse XFe96 Analyzer and analyzed using Wave Desktop software (Agilent Technologies).

cell lines = conditions: compared to other chelators (e.g. TPEN); cited from earlier work
zng1 transcript = assay: zng1 expression in whole zebrafish larvae (qPCR); format: in vivo; conditions: WT larvae, immersion, 20 μM TPEN vs ethanol vehicle
Protocol: For all experiments larval zebrafish were bred naturally and collected into embryo media and were maintained at 28° C. on a 14/10 h light/dark cycle for duration of experiments. For survival experiments, zebrafish larvae were split into even densities into 6 or 12 multi-well plates in 5 mL or 1 mL embryo media respectively at 3 dpf. Stock solutions of METAP2 inhibitor TNP-470 (Sigma, T1455) and METAP1/2 inhibitor Bengamide B (Santa cruz, sc-397521A) were prepared in ACS-grade DMSO (Fisher Scientific, D136) and TPEN (Sigma, P4413) was prepared in ethanol and stored at −20° C. TNP-470, Bengamide B, and/or TPEN were applied into embryo media as well as a DMSO and/or ethanol vehicle controls at 3 dpf. Zebrafish survival was monitored daily until 6 dpf and all moribund or dead animals were removed. […]
For RNA isolation from dissected mouse tissue, mice were humanely euthanized, tissues harvested and immediately flash frozen in liquid nitrogen and stored at −80C. […] Quantitative PCR was performed in duplicate-quadruplicate 25 μL reactions using 2× iQ SYBR Green SuperMix (BioRad, 1708882) run on an BioRad CFX96 Real-Time System instrument using gene-specific primers (zebrafish: P34-P39, mice: P40-P43, cell lines: 44-69, Table S5). Data were analyzed with the ΔΔCt method (Livak and Schmittgen, 2001) or presented as relative expression values.

c1ccc(CN(Cc2ccccn2)Cc2ccccn2)nc1 [TPA, tris(2-pyridylmethyl)amine]
proliferation (CellTrace dye retention) (TKPTS cells [1]): significantly slowed proliferation | basal and maximal respiration, ATP production, and proton leak (OCR) (TKPTS cells [2]): significantly impaired | cytotoxicity towards cell lines (cell lines): lower cytotoxicity

c1ccc(CN(CCN(Cc2ccccn2)Cc2ccccn2)Cc2ccccn2)nc1 [TPEN, N,N,N′,N′-Tetrakis(2-pyridylmethyl)ethylenediamine]
zng1 transcript (zng1 transcript): significant induction
